Source: BindingDB's records for PubMed 9226416 (University of Sydney, 1997)

How the values were obtained:
[1] = target: T1, Gamma-aminobutyric acid receptor subunit alpha-3 (Homo sapiens, UniProt P34903)
T1 sequence (P34903 whole entry): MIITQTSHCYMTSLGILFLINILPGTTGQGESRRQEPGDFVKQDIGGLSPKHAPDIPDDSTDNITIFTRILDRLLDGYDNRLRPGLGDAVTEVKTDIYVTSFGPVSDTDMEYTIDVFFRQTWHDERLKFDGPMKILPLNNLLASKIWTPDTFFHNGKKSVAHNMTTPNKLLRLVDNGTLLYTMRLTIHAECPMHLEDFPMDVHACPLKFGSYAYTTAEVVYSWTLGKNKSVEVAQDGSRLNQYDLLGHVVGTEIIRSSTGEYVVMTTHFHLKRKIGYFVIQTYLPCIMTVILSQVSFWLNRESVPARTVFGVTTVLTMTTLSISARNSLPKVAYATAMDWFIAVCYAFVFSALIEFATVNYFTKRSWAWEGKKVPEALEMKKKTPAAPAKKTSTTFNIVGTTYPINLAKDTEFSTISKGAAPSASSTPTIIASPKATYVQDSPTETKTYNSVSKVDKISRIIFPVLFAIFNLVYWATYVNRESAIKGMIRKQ

[2] = target: Gamma-aminobutyric acid (GABA) B receptor 1 (Rattus norvegicus, UniProt Q6MFX8)
Gamma-aminobutyric acid (GABA) B receptor 1, sequence (Q6MFX8 whole entry): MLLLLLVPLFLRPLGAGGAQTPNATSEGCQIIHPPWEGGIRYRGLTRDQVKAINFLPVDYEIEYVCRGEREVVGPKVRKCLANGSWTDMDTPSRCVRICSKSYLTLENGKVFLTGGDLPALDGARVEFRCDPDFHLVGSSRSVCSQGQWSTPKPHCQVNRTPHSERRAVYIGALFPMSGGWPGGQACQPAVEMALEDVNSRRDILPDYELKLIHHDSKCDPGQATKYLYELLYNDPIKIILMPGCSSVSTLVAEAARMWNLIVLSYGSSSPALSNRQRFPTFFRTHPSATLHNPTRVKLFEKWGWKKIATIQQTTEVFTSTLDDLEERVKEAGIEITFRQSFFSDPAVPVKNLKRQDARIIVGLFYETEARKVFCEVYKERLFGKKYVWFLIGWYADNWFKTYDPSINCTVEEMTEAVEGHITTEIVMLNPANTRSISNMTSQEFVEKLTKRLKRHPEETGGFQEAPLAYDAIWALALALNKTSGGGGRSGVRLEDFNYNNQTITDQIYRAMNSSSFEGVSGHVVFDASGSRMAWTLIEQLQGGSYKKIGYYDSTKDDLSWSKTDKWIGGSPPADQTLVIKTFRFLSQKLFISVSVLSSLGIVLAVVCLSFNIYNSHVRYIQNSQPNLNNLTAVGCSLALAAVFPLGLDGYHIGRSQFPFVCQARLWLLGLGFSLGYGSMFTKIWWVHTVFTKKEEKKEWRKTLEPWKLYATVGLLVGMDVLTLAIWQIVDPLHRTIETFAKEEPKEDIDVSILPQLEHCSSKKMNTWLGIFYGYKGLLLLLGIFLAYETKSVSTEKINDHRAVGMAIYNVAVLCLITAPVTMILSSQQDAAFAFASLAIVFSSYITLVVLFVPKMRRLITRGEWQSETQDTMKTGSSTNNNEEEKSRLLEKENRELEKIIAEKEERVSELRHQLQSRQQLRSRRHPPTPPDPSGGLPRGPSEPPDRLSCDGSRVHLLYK

Compound | Ki [1] [nM] | Ki [2] [nM]
NCCC[PH](=O)O [(3-aminopropyl)phosphinic acid] | 2470 | 5
CCCCP(=O)(O)CCCN [CGP36742] | > 10000 | –
CP(=O)(O)CCCN [CGP35024] | 750 | –
